Measured values published in publication PMC11224403, “Des-acyl ghrelin reduces alcohol intake and alcohol-induced reward in rodents” (Translational Psychiatry, 2024).

Tests used:
male and female rats = assay: Locomotor activity test, DAG per se, rats; assay type: in vivo, Rcc Han Wistar rats; conditions: DAG 0.5, 1.0 or 2.0 mg/kg, 60 min recording, n = 5–6 per group
Excerpt: Male and female Rcc Han Wistar rats (8–12 weeks old at arrival; Envigo, Horst, Netherlands) were used for the alcohol drinking and locomotor activity experiments as they drink alcohol to intoxicating levels. For in vivo microdialysis studies male Wistar rats (Charles River, Calco, Italy) were used as they display robust dopamine levels in NAc shell after alcohol injection. […] All rodents were allowed to habituate to the animal facility at least one week before they entered an experiment. During housing (20 °C with 50% humidity) the rodents had free access to water and standard chow (Teklad Rodent Diet; Envigo, Madison, WI, USA). […] The sample sizes of each experiment were based on previous experience in which statistical significance has been detected. The person who conducted the experiments, and analyzed the collected data was aware of the treatment allocation. […]
Locomotor activity tests were conducted in ventilated and dim-lit (4 lux) open field arenas (420 × 420 × 200 mm; Med Associates Inc; Georgia, Vermont, USA). Infra-red beams detected distance traveled, number of jumps, vertical counts, average velocity, stereotypic counts, number of inner zone entries, and time spent in the inner/outer zones of each animal. […]
The obtained data are normally distributed and with equal variance. The data from drinking experiments were analyzed by unpaired t-test or repeated two-way ANOVA. […]

male mice = assay: Locomotor activity test, alcohol-induced stimulation and DAG per se, mice; assay type: in vivo, NMRI mice
Excerpt: Male and female Rcc Han Wistar rats (8–12 weeks old at arrival; Envigo, Horst, Netherlands) were used for the alcohol drinking and locomotor activity experiments as they drink alcohol to intoxicating levels. For in vivo microdialysis studies male Wistar rats (Charles River, Calco, Italy) were used as they display robust dopamine levels in NAc shell after alcohol injection. […] All rodents were allowed to habituate to the animal facility at least one week before they entered an experiment. […] The sample sizes of each experiment were based on previous experience in which statistical significance has been detected. The person who conducted the experiments, and analyzed the collected data was aware of the treatment allocation. Only preset exclusion criteria were used when analyzing the data obtained in attempts to exclude confounding factors in analyzing data. In the alcohol drinking experiments leaking bottles and low alcohol consumption (<3.0 g/kg for males; <3.5 g/kg for females) were preset exclusion criteria. The preset exclusion criterion in the ex vivo HPLC-EC, ELISA, and recombinant cell line experiments was contamination of the sample. Misplaced probes, technical difficulties, and damages to the surgery area were preset exclusion criteria for the in vivo microdialysis experiment. Intra-cage male aggression was the preset exclusion criterion for the locomotor activity and CPP experiments. To minimize tentative confounding factors, the order of treatments was stratified, with treatments being mixed for each animal cage and for each apparatus used as well as balancing the alcohol intake between future treatment groups.
Alcohol was in the behavioral and neurochemical tests injected (intraperitoneally, IP) 5 min before the test.
Locomotor activity tests were conducted in ventilated and dim-lit (4 lux) open field arenas (420 × 420 × 200 mm; Med Associates Inc; Georgia, Vermont, USA). Infra-red beams detected distance traveled, number of jumps, vertical counts, average velocity, stereotypic counts, number of inner zone entries, and time spent in the inner/outer zones of each animal.
In the first test, after 60 min of habituation, male (n = 24) or female (n = 24) rats were injected with vehicle or DAG (0.5, 1.0, or 2.0 mg/kg). 15 min later the activity was monitored for another 60 min. In the second locomotor activity experiment, male mice (n = 32) were allowed to habituate for 60 min. After that, they were injected with vehicle or DAG (0.25, 0.5, or 1.0 mg/kg). After 15 min the activity was monitored for another 60 min.
Therefore, male mice were (n = 32) injected with DAG (1.0 mg/kg) or vehicle 15 min before alcohol or vehicle. The activity registration started 5 min later and was recorded for an additional 60 min. Identical locomotor activity experiments were conducted in new male mice (n = 32), where a lower dose of DAG (0.5 mg/kg) was combined with alcohol.
The data from drinking experiments were analyzed by unpaired t-test or repeated two-way ANOVA. A two-tailed unpaired t-test analyzed the ELISA, ex vivo HPLC-EC, and cFOS data. In addition, the Pearson test correlated the serum levels and the mean values of alcohol intake in rats. A one-way ANOVA with Bonferroni post hoc tests and unpaired t-test analyzed the locomotor activity and CPP data, respectively. The in vivo microdialysis experiments were evaluated by a repeated two-way ANOVA followed by the Bonferroni post hoc test.

## des-acyl ghrelin (GSSFLSPEHQRVQQRKESKKPPAKLQPR; Ghrelin-28 non-acylated; UniProt Q9UBU3 24-51, looked up) [DAG, non-octanoylated form of ghrelin; purchased from Tocris (printed Tocrise Bioscience), dissolved in 0.9% NaCl]
Male and female rats; female rats
  locomotor activity, DAG per se: did not influence locomotor activity
Male and female rats; male rats
  locomotor activity, DAG per se: did not influence locomotor activity
Male mice; DAG 0.5 mg/kg plus alcohol, n = 8 per group (vehicle-vehicle one removed)
  alcohol-induced locomotor stimulation (effect of DAG): reduced but did not block (P = 0.5319)
Male mice; DAG 1 mg/kg 15 min before alcohol 1.75 g/kg IP, n = 8 per group
  alcohol-induced locomotor stimulation (effect of DAG): prevented the alcohol-induced locomotor stimulation (P = 0.0305)
Male mice; DAG 1 mg/kg without alcohol, n = 8 per group
  locomotor activity, DAG per se: did not alter the activity of the mice (P > 0.9999)
Male mice; DAG 0.25, 0.5 or 1.0 mg/kg, 60 min recording, n = 8 per group, data not shown
  locomotor activity, DAG per se, dose finding: did not influence locomotor activity
